Measured values as given in PMC6894422 (Journal of the American Chemical Society, 2019).

Key:
[1] = system: kinome (222 kinases quantified) in NOMO-1 human AML cells; test: MIB-MS kinome profiling; assay type: cell-based; settings: NOMO-1 cells, 100 nM, one hour
[2] = pharmacokinetic study in mice; assay type: in vivo
[3] = system: OCI-AML5 AML cells; test: colony formation in soft agar; assay type: cell-based
[4] = system: COLO-699 NSCLC cells; test: colony formation in soft agar; assay type: cell-based; settings: 14 days
[5] = system: NOMO-1 AML cells; test: colony formation in soft agar; assay type: cell-based, human; settings: NOMO-1, 300 nM
[6] = system: A549 NSCLC cells; test: colony formation in soft agar; assay type: cell-based; settings: A549, 300 nM, 14 days
[7] = system: Kasumi-1 AML cells; test: cell death by PoPro-1-iodide/propidium iodide flow cytometry; assay type: cell-based; settings: Kasumi-1, 300 nM, 72 hours
[8] = system: NOMO-1 AML cells; test: as above; settings: NOMO-1, 300 nM, 72 hours
[9] = system: AXL phosphorylation in A549 NSCLC cells; test: pAXL assay
[10] = system: MERTK phosphorylation in 697 ALL cells; test: pMERTK assay

Which results are given for `CC(C)C(=O)Nc1ccnc(C#Cc2ccc(Nc3ncc(-c4ccccn4)c(NC4CCC(O)CC4)n3)cc2)c1` (centres unmarked) [Compound 10]?
number of kinases with lower enrichment on the beads compared to DMSO control ([1]; 222 kinases quantified): 27 kinases; number of kinases significantly decreased ([1]; p < 0.05 and log2 ratio 10/control ≥ 2): 8 kinases; oral bioavailability ([2]; p.o.): weak oral bioavailability; Cmax ([2]; plasma, via i.p. route): 435 ng/mL; T1/2 ([2]; plasma, via i.p. route): 4.97 h; reduction in colony number ([3]; OCI-AML5, 50 nM): 70%; colony formation ([3]; OCI-AML5, 300 nM): complete abrogation of colony formation; reduction in colony number ([4]; COLO-699, 50 nM): 70%; colony formation ([4]; COLO-699, 300 nM): complete abrogation of colony formation; reduction in colony number [5]: 60–75%; reduction in colony number [6]: 60–75%; tumor cell death (% of cells) [7]: 67%; tumor cell death (% of cells) [8]: 41%; inhibition of pAXL at higher concentrations ([9]; higher concentrations of 10): Near complete inhibition; IC50 ([9]; read-out: IC50 (AXL phosphorylation), A549 NSCLC cells, 1 hour, 95% confidence interval = 18–57 nM): 32 nM; inhibition of pMERTK at higher concentrations ([10]; higher concentrations of 10): Near complete inhibition; IC50 ([10]; read-out: IC50 (MERTK phosphorylation), 697 ALL cells, 1 hour, 95% confidence interval = 16–52 nM): 28 nM
